# In ChEMBL document CHEMBL5584331, “Methyl-Transferase-Like Protein 16 (METTL16): The Intriguing Journey of a Key Epitranscriptomic Player Becoming an Emerging Biological Target” (J Med Chem, 2024):
# How the values were obtained:
# NOMO-1 = assay: Antiproliferative activity against human NOMO-1 cells assessed as reduction in cell viability incubated for 48 hrs by MTT assay; type: functional, cell-based; settings: NOMO-1, 48 h
# [1] = biological target: N6-adenosine-methyltransferase catalytic subunit (Homo sapiens, UniProt Q86U44); assay: Binding affinity to METTL3 (unknown origin) assessed as dissociation constant
# Chain of N6-adenosine-methyltransferase catalytic subunit (Q86U44 whole entry): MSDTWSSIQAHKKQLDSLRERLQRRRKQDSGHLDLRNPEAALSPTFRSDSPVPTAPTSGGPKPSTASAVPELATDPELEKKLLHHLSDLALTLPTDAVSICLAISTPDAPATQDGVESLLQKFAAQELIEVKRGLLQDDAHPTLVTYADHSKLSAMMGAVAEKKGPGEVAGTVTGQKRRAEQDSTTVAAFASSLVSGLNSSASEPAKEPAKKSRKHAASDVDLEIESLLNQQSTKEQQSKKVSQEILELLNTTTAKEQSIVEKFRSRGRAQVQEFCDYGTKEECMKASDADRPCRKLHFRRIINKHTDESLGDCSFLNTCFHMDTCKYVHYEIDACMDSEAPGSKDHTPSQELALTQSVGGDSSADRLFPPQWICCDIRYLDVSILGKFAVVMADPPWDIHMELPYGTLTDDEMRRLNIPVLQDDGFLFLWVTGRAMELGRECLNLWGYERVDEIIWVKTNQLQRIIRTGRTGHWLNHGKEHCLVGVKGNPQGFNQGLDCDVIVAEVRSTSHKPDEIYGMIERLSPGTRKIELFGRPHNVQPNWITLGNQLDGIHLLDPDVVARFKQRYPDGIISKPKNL
Kd [1] [µM],SMILES,IC50 (NOMO-1) [µM]
–,N#Cc1ccc(Cn2ccc3c4c(N)nc(N)nc4ccc32)cc1,0.0206
2.84,C/C(=N\NC(N)=S)c1ccc(F)cc1,–
3.31,C/C(=N\N=C(/N)S)c1ccccc1 [PHENYL(METHYL)THIOSEMICARBAZONE],–
